Experimental data as given in patent publication US20150064287A1, “METHOD FOR TREATING ABNORMAL POLYGLUTAMINE-MEDIATED DISEASES” (NATIONAL TAIWAN NORMAL UNIVERSITY, priority 2013, published 2015).

Tests used:
[1] = MTT cytotoxicity assay in HEK-293 cells; format: cell-based; settings: human, one day treatment
Procedure: (§1) Cells (5×10^4/well in 48-well dishes) were cultivated at 37° C. incubator containing 5% CO2 for 20 hr and treated with different concentrations of the Gardenia jasminoides extract (5-30 mg/mL) or pure compound (100 nM-1 mM). After one day, 20 μL MTT (3,[4,5-dimethylthiazol-2-yl]-2,5-diphenyl-tetrazolium bromide, 5 mg/mL in PBS; Sigma-Aldrich) was added to cells and incubated for 2 hr. The absorbance of the purple formazan dye was measured at 570 nm by a Bio-Tek μQuant Universal Microplate Spectrophotometer.

[2] = MTT cytotoxicity assay in SH-SY5Y cells; format: cell-based; settings: human, one day treatment
Procedure: as §1

[3] = 1,1-diphenyl-2-picryl hydrazyl (DPPH) radical scavenging assay; format: biochemical; settings: for DPPH scavenging activity: 10-200 μM tested, data not shown
Procedure: Then, the scavenging capacity was measured by monitoring the decrease in absorbance at 517 nm by a Thermo Scientific Multiskan GO Microplate Spectrophotometer.

[4] = test system: SH-SY5Y ATXN3/Q75-GFP cells; assay: ATXN3/Q75 aggregation assay in retinoic acid-differentiated SH-SY5Y cells; format: cell-based, human; settings: one week
Procedure: (§2) Flp-InTM-293 cells derived from human 293 (Invitrogen) were cultured as described above. The isogenic ATXN3/[…]-75 cell line was employed, which was formed from subjecting the Flp-InTM-293 cells to targeting insertion of the pcDNA5/FRT/TO-ATXN3/[…] and […] recombinant plasmids. These cell lines were grown in medium containing 5 μg/mL blasticidin and 100 μg/mL hygromycin (InvivoGen). In addition, the method for culture in establishment of the human SH-SY5Y derived Flp-In host cell line and the formation of the isogenic ATXN3/[…]-75 cell line was the same. […] After that, cells were stained with Hoechst 33342 (0.1 μg/mL) and aggregation percentage was assessed as described.

[5] = test system: 293 ATXN3/Q75-GFP cells; assay: ATXN3/Q75 aggregation assay in 293 cells (high-content analysis); format: cell-based, human; settings: 8 hr pretreatment, doxycycline and oxaliplatin 6 days
Procedure: as §2, with “The” for “Flp-InTM-293 cells derived from human 293 (Invitrogen) were cultured as described above. The”, “Then doxycycline (10 μg/mL, BD) and oxaliplatin (5 μM, Sigma)” for “After that, cells”, “added for 6 days.” for “stained with Hoechst 33342 (0.1 μg/mL) and aggregation percentage was assessed as described.”

COC(=O)C1=CO[C@@H](O)[C@@H]2C(CO)=CC[C@H]12 [genipin]
IC50 at 1 day [1]: 580 µM | IC50 at 1 day [2]: 100 µM | DPPH scavenging activity [3]: no detectable DPPH scavenging activity | aggregation reduction in ATXN3/Q75 expressed neuronal cells ([4]; 500 nM): 18%

O=c1c(O)c(-c2ccc(O)cc2)oc2cc(O)cc(O)c12 [kaempferol, reference compound]
EC50 ([3]; 100 μM DPPH, 30 min room temperature): 27 µM

O=C(CCCCCCC(=O)Nc1ccccc1)NO [SAHA, suberoylanilide hydroxamic acid, reference compound]
ATXN3/Q75 aggregation as compared to untreated cells ([5]; at 100 nM): 85.9%

COC(=O)C1=CO[C@@H](O[C@@H]2O[C@H](CO)[C@@H](O)[C@H](O)[C@H]2O)[C@@H]2C(CO)=CC[C@H]12 [geniposide]
IC50 at 1 day [1]: > 1000 µM | IC50 at 1 day [2]: > 1000 µM | ATXN3/Q75 aggregation as compared to untreated cells ([5]; at 500 nM): 82.3% | DPPH scavenging activity [3]: no detectable DPPH scavenging activity | aggregation reduction in ATXN3/Q75 expressed neuronal cells ([4]; 500 nM): 21%

CC(/C=C/C=C(\C)C(=O)O[C@@H]1O[C@H](CO[C@@H]2O[C@H](CO)[C@@H](O)[C@H](O)[C@H]2O)[C@@H](O)[C@H](O)[C@H]1O)=C\C=C\C=C(C)\C=C\C=C(/C)C(=O)O[C@@H]1O[C@H](CO[C@@H]2O[C@H](CO)[C@@H](O)[C@H](O)[C@H]2O)[C@@H](O)[C@H](O)[C@H]1O [crocin]
IC50 at 1 day [1]: > 1000 µM | IC50 at 1 day [2]: 970 µM | ATXN3/Q75 aggregation as compared to untreated cells ([5]; at 100 nM): 81.5% | aggregation reduction in ATXN3/Q75 expressed neuronal cells ([4]; 100 nM): 21%
